From patent US7078389B2, “Chemically modified oligonucleotide for site-directed mutagenesis” (priority 1993, dated 2006)
Entries after “also recorded” stand apart in the source; their conditions may differ.

Assays:
[1] = tested on: lambda repressor (cI) gene; experiment: Non-targeted mutagenesis of cI gene in lambda supF DNA; design: species or system lambda phage; conditions: for cI mutations per 1000 phage: lambda DNA 3 nM, oligonucleotide 3 μM, UVA 1.8 J/cm^2
Procedure: Targeted mutagenesis was achieved by incubating pso-AG10 with lambda supF DNA in vitro to form triplex at positions 167 to 176 of the supF gene and bring the tethered psoralen into proximity with the targeted base pair at position 167 as shown in Table 1. The numbers in the table represent the frequency of mutations seen in either the supF gene or the cI gene in the lambda supF genome following the indicated treatment. The lambda DNA at 3 nM was incubated with or without a 1000-fold molar excess of the indicated oligonucleotides (3 μM) as described in FIG. 2.
UVA (365 nm) irradiation of selected samples was performed at a dose of 1.8 J/cm^2. A radiometer was used to measure lamp output (typical UVA irradiance of 5–7 mW/cm^2 at 320–400 nm). The DNA was packaged in vitro into phage particles, using the method of Hohn, Methods in Enzymology 68:299–309 (1979), and the phage particles were adsorbed to E. coli and grown as individual plaques to allow genetic analyses of the supF and cI genes.
Photoactivation of the psoralen generated a DNA adduct, and in vitro packaging of the psoralen-AG10. The lambda supF DNA complex allowed growth of the phage in bacteria to fix the adduct into a mutation. The phage particles were grown as individual plaques on a bacterial lawn to detect targeted mutagenesis in the supF gene and to measure the extent of non-targeted mutagenesis by screening for the function of an unrelated gene, the lambda repressor (cI) gene. Mutations in these genes yield colorless plaques among blue ones and clear plaques among turbid ones, respectively.

[2] = tested on: 250 bp supF PCR fragment; experiment: Hinf I restriction enzyme protection assay, PCR amplified supF target; format: binding, E. coli; conditions: 100-fold molar excess of oligonucleotide
From the text: FIG. 4 is a schematic representation showing the basis of a restriction enzyme protection assay to detect site-specific triplex formation within the supF gene. The formation of triplex DNA by psoralen-AG10 at its targeted site (bp 167–176 of the supF gene) overlaps with the Hinf I restriction site at bp 164–168 (indicated in the diagram by the box around the appropriate base pairs). Digestion of the unprotected 250 bp supF PCR fragment with Hinf I is expected to yield three fragments of sizes 150, 65, and 35 bp. In contrast, with the Hinf I site at bp 164–168 blocked by triplex formation at bp 167–176, fragments of sizes 150 and 100 bp are predicted.
The 250 bp supF target (70 nM) was incubated with a 100-fold molar excess of psoralen-AG10 as described for the binding assay. Irradiation of samples was performed at a dose of 1.8 J/cm^2. A radiometer was used to measure the lamp output (typical UVA irradiance of 5–7 mW/cm^2 at 320–400 nm). Following the binding and irradiation steps, samples were digested for 2 hours at 37° C. with Hinf I. Loading buffer was added and samples were heated 10 minutes at 55° C., and run for 1 hour on a 4.5% Nusieve gel in TAE buffer at 80 v (10 v/cm).
Site-specific formation of triplex DNA. […] This is diagrammed in FIG. 4. […] Analysis by agarose gel electrophoresis of Hinf I digestions of the 250 bp supF gene PCR fragment under various conditions was done. The supF fragment was incubated with or without psoralen-AG10 at a 100-fold molar excess, treated by 1.8 J/cm^2 of UVA irradiation, and then subjected to Hinf I digestion. Digestion of the unprotected 250 bp supF PCR fragment with Hinf I yielded three fragments of sizes 150, 65, and 35 in contrast with the uncut fragment of 250 bp. […] In the absence of psoralen-AG10, UVA light had no effect on Hinf I digestion.

[3] = tested on: supF gene of the lambda vector; experiment: Sequence analysis of supF mutants from lambda vector; design: species or system E. coli; conditions: plus UVA
From the text: FIGS. 2A and 2B show a sequence analysis of targeted mutagenesis in the supF gene by the psoralen-linked triplex-forming oligonucleotide (pso-AG10). In FIG. 2A, mutations produced by pso-AG10 and UVA are indicated above each base pair, with the listed base representing the change from the sequence in the top strand. […] The asterisk indicates the targeted base pair at position 167. DNA sequence data was obtained by automated methods after polymerase chain reaction amplification of the supF genes from lambda phage plaques in accordance with the method of Connell et al., Biotechniques 5:342 (1987). FIG. 2B is a compilation of mutations induced in supF by 8-methoxypsoralen and UVA in mouse L-cells using the lambda supF vector of FIG. 1 or generated using a plasmid shuttle vector in monkey Vero cells in accordance with the method of Bredberg and Nachmansson, Carcinogenesis 8:1923 (1987), to compare the mutations produced in supF by free psoralen with those produced by the triplex forming oligonucleotide AG10.
To obtain direct evidence for targeted mutagenesis, a series of independent mutants produced in the supF gene of the lambda vector by pso-AG10 and UVA were sequenced. […] The A:T base pair at 167 forms a triplet with the 5′ adenine to which the psoralen is tethered in AG10, and so it is the closest base pair to the psoralen. The overwhelming predominance of the T:A to A:T transversion at this site is consistent with the mutagenic action of psoralen, which tends to form adducts at pyrimidines, and especially at thymidines. It should be noted that these mutations are independent and none of the mutations represent siblings because each packaged lambda particle gives rise to a single, separate lambda plaque on the bacterial lawn.

[4] = supF fragment 70 nM, UVA 1.8 J/cm^2

Substance | cI mutations per 1000 phage [1] | cI mutation frequency ([1]; plus UVA 1.8 J/cm^2) [%] | Protection from Hinf I digestion ([2]; no UVA) | Protection from Hinf I digestion [2, 4] | Share of sequenced supF mutations that are the T:A to A:T transversion at targeted base pair 167 ([3]; 25 mutants) [%] | Position of supF mutations relative to targeted base pair 167 [3]
4′-hydroxymethyl-4,5′,8-trimethylpsoralen-^5′AGGAAGGGGG^3′ (DNA NAGGAAGGGGG; 4'-hydroxymethyl-4,5',8-trimethylpsoralen conjugated at 5' end, further chemistry not given here) [pso-AG10] | 0.024 (28/1,162,000) per 1000 phage | 0.0024 | not sufficient to prevent Hinf I digestion | protection of the Hinf I site at bp 164–168 but not the one at bp 129–133 | 56 | All except one of the 25 mutations produced by pso-AG10 is at or near the targeted T:A base pair at position 167; also recorded: almost all were targeted by the triplex-forming oligonucleotide
pso-^5′GGGGGAAGGA^3′ (DNA NGGGGGAAGGA; psoralen conjugated at 5' end, further chemistry not given here) [pso-GA10, reference compound] | 0.019 (9/483,475) per 1000 phage | – | – | no protection from Hinf I cutting | – | Neither of the two mutations induced by the reverse oligomer, pso-GA10, were found to occur at base pair 167
